From publication PMC10671849, “Synthesis and Evaluation of Marine-Inspired Compounds Result in Hybrids with Antitrypanosomal and Antileishmanial Activities” (Marine Drugs, 2023)
Values after ≈ are worked out from the molar mass of the structure shown. Where two headings read alike, the source gives them in different places.

Columns and labels:
Assay type in all cases: cell-based
[1] = tested on: Candida albicans ATCC 10231; test: Antifungal broth microdilution (CLSI M27-A3), MIC/MLC; details: for MIC: Candida albicans, ATCC10231, broth microdilution, 16 to 512 µg/mL, 48 h at 36 °C
Procedure: (§1) All tested compounds (9a–9d, 10a–10c, 13, 14, and eugenol (1)) were prepared in DMSO (Sigma-Aldrich, St. Louis, MO, USA) at a concentration of 10 mg/mL. The reference drugs used (voriconazole (Sigma-Aldrich, St. Louis, MO, USA) for fungi and quality control; gentamicin (Sigma-Aldrich, St. Louis, MO, USA) for bacterial and quality control) were prepared at 6.4 mg/mL. The stock solutions of the compounds were stored at –20 °C until immediately before the assays and then were diluted in fresh culture medium, RPMI-1640 medium (Biochrom AG, Berlin, Germany) buffered with 3-(N-morpholino)propanesulfonic acid (MOPS—Sigma-Aldrich, St. Louis, MO, USA) for fungi and cation-adjusted Mueller–Hinton broth (MHBII—Becton Dickinson, France) for bacteria, henceforth referred to as RPMI and MHB, respectively.
(§2) Fungal strains, including reference strains and clinical isolates, were used for the study of the antifungal activity: a yeast reference strain from American Type Culture Collection (ATCC), Candida albicans ATCC 10231; filamentous fungi reference strain Aspergillus fumigatus ATCC 240305; and a clinical isolate of dermatophytes Trichophyton rubrum FF5. Candida krusei ATCC 6258 was used as a quality control. All fungal strains were stored in Sabouraud dextrose broth (SDB—Bio-Mèrieux, Marcy L’Etoile, France) with glycerol (20%) at −80 °C and were subcultured in Sabouraud dextrose agar (SDA—Bio-Mèrieux, Marcy L’Etoile, France) for 24–72 h (yeasts and A. fumigatus) or 5–7 days (T. rubrum) before each assay to obtain optimal growth and purity conditions. Two bacteria strains were used, one Gram positive and one Gram negative: Staphylococcus aureus ATCC 25923 and Escherichia coli ATCC 25922, respectively. The bacterial strains were stored in trypticase soy broth (TSB—Biolife, Milan, Italy) with glycerol (10%) at −80 °C and subcultured in Mueller–Hinton agar (MHA—Bio-Mèrieux, Marcy L’Etoile, France) for 24 h before each assay.
For the purpose of quantitatively measuring the antifungal activity in vitro, a broth microdilution method was used to determine the MICs using the CLSI reference protocols M27-A3 [27] for yeasts and M38-A2 [28] for filamentous fungi. In short, two-fold serial dilutions of each stock solution were prepared using RPMI medium (pH 7) to obtain a range of test concentrations from 16 to 512 μg/mL. The yeasts or spore suspensions were prepared from 24 to 72-h cultures (yeasts and Aspergillus) or from 5–7 days of cultures (dermatophyte) in saline solution (with a drop of Tween 20 for the filamentous fungi). The transmittance of the cell density of yeasts was adjusted to 0.5 McFarland standard, and for filamentous fungi, the spores were counted using a Neubauer camera. Dilutions were performed using RPMI to obtain cell final concentrations in the plate of 0.5–2.5 × 10^3 colony forming units (CFU)/mL for yeasts, 0.4–5 × 10^4 CFU/mL for Aspergillus, and 1–3 × 10^3 CFU/mL for dermatophytes. Plates with the prepared serial dilutions of the tested compounds were inoculated with the same volume of the fungal suspension, and sterility (wells with only culture medium), growth (wells with cell suspensions in culture medium), and DMSO controls (wells with cell suspensions in culture medium containing 1% DMSO) were included in each assay. […] For the tested compounds, MIC values were considered the minimum concentration that inhibited the yeast growth by 100% compared to the growth control. The reference drug, voriconazole, was tested against C. krusei ATCC 6258 as a quality control, and the results were within the limits of CLSI reference documents.
After MIC readings, 10 μL of suspension were collected from wells corresponding to the MIC and the highest concentration following the MIC and were deposited in SDA plates. The plates were incubated following the conditions previously mentioned for the MIC evaluation, and the MLC was determined as the lowest concentration at which no fungal growth is observed.

[2] = tested on: Staphylococcus aureus ATCC 25923; test: Antibacterial broth microdilution (CLSI M100-S25), MIC/MLC
Procedure: as §1, §2
(§3) For bacteria, MICs were determined by the broth microdilution method, following the recommendations of the reference method M100-S25 [29].
(§4) Similarly, as previous described, two-fold serial dilutions of each stock solution were prepared using MHB to obtain a range of test concentrations from 16 to 512 μg/mL. Bacterial cell suspensions were prepared from 24-h cultures in saline solution, and the transmittance of cell density was adjusted to 0.5 McFarland standard. Dilutions were performed using MHB to obtain cell final concentrations in the plate of 0.5–2.5 × 10^4 CFU/mL.
(§5) Plates with the prepared serial dilutions of the tested compounds were inoculated with the same volume of the bacterial suspension, and sterility, growth and DMSO controls were included in each assay. Immediately thereafter, the plates were incubated in a humid atmosphere (aerobic environment) for 18–24 h at 36 °C.
(§6) MIC values were considered the minimum concentrations that inhibited the bacterial growth by 100% compared to the growth control. The reference drug, gentamicin, was tested as a quality control, and the results were according to the norms.
(§7) A volume of 10 μL of suspension was collected from wells corresponding to the MIC and the highest following concentration and was deposited in MHA plates. The plates were incubated for 24 h at 36 °C, and the MLC was determined as the lowest concentration at which no bacterial growth was observed.

[3] = tested on: Escherichia coli ATCC 25922; test: as above
Procedure: as §1, §2, §3, §4, §5, §6, §7

[4] = ATCC25923, broth microdilution, 16 to 512 µg/mL, 18–24 h at 36 °C, read-out: MIC S. aureus
[5] = ATCC25922, broth microdilution, 16 to 512 µg/mL, 18–24 h at 36 °C, read-out: MIC E. coli

MIC [1] | MIC [2, 4] | MIC [3, 5] | MIC ([2]; ATCC25923, second value printed after the MIC of the preceding sentence, read-out: MIC S. aureus ("the only MIC evaluated")) | MIC ([3]; ATCC25922, second value printed after the MIC of the preceding sentence, read-out: MIC E. coli ("the only MIC evaluated")) | Compound | MLC C. albicans ([1]; minimum lethal concentration, subculture on SDA after MIC reading)
> 512 µg/mL | > 512 µg/mL | > 512 µg/mL |  |  | C=CCc1cc(Cn2cc(C(=O)Nc3ccccc3C(N)=O)nn2)c(O)c(OC)c1 [9a, 1-(5-allyl-2-hydroxy-3-methoxybenzyl)-N-(2-carbamoylphenyl)-1H-1,2,3-triazole-4-carboxamide] | 
> 512 µg/mL | > 512 µg/mL | > 512 µg/mL |  |  | C=CCc1cc(Cn2cc(C(=O)Nc3ccc(OC)cc3C(N)=O)nn2)c(O)c(OC)c1 [9b, 1-(5-allyl-2-hydroxy-3-methoxybenzyl)-N-(2-carbamoyl-4-methoxyphenyl)-1H-1,2,3-triazole-4-carboxamide] | 
> 512 µg/mL | 256 µg/mL (≈ 602 µM) | 256 to 512 µg/mL (≈ 602 to 1200 µM) | ≤ 512 µg/mL | > 512 µg/mL | C=CCc1cc(Cn2cc(C(=O)Nc3ccc(F)cc3C(N)=O)nn2)c(O)c(OC)c1 [9c, 1-(5-allyl-2-hydroxy-3-methoxybenzyl)-N-(2-carbamoyl-4-fluorophenyl)-1H-1,2,3-triazole-4-carboxamide] | 
> 512 µg/mL | > 512 µg/mL | > 512 µg/mL |  |  | C=CCc1cc(Cn2cc(C(=O)Nc3ccc(Cl)cc3C(N)=O)nn2)c(O)c(OC)c1 [9d, 1-(5-allyl-2-hydroxy-3-methoxybenzyl)-N-(2-carbamoyl-4-chlorophenyl)-1H-1,2,3-triazole-4-carboxamide] | 
> 512 µg/mL | > 512 µg/mL | > 512 µg/mL |  |  | C=CCc1cc(Cn2cc(-c3nc4ccccc4c(=O)[nH]3)nn2)c(O)c(OC)c1 [10a, 2-(1-(5-allyl-2-hydroxy-3-methoxybenzyl)-1H-1,2,3-triazol-4-yl)quinazolin-4(3H)-one] | 
> 512 µg/mL | > 512 µg/mL | > 512 µg/mL |  |  | C=CCc1cc(Cn2cc(-c3nc4ccc(OC)cc4c(=O)[nH]3)nn2)c(O)c(OC)c1 [10b, 2-(1-(5-allyl-2-hydroxy-3-methoxybenzyl)-1H-1,2,3-triazol-4-yl)-6-methoxyquinazolin-4(3H)-one] | 
> 512 µg/mL | > 512 µg/mL | > 512 µg/mL |  |  | C=CCc1cc(Cn2cc(-c3nc4ccc(F)cc4c(=O)[nH]3)nn2)c(O)c(OC)c1 [10c, 2-(1-(5-allyl-2-hydroxy-3-methoxybenzyl)-1H-1,2,3-triazol-4-yl)-6-fluoroquinazolin-4(3H)-one] | 
> 512 µg/mL | > 512 µg/mL | > 512 µg/mL |  |  | C=CCc1ccc(OCc2cn(CC(=O)Nc3ccccc3C(=O)O)nn2)c(OC)c1 [compound 13, 2-(2-(4-((4-allyl-2-methoxyphenoxy)methyl)-1H-1,2,3-triazol-1-yl)acetamido) benzoic acid] | 
> 512 µg/mL | > 512 µg/mL | > 512 µg/mL |  |  | C=CCc1cc(Cn2cc(-c3nc4ccccc4c(=O)o3)nn2)c(O)c(OC)c1 [compound 14, 2-(1-(5-allyl-2-hydroxy-3-methoxybenzyl)-1H-1,2,3-triazol-4-yl)-4H-benzo[d][1,3]oxazin-4-one] | 

Compound | MIC [1] | MIC [2, 4] | MIC [3, 5] | MIC ([2]; ATCC25923, second value printed after the MIC of the preceding sentence, read-out: MIC S. aureus ("the only MIC evaluated")) | MIC ([3]; ATCC25922, second value printed after the MIC of the preceding sentence, read-out: MIC E. coli ("the only MIC evaluated")) | MLC C. albicans ([1]; minimum lethal concentration, subculture on SDA after MIC reading)
C=CCc1ccc(O)c(OC)c1 [Eugenol, eugenol, reference compound] | 512 µg/mL (≈ 3120 µM) | > 512 µg/mL | > 512 µg/mL |  |  | > 512 µg/mL
